# Test results: ChEMBL document CHEMBL5375955, “Discovery of New Fusobacterium nucleatum Inhibitors to Attenuate Migratory Capability of Colon Cancer Cells by the Drug Repositioning Strategy” (J Med Chem, 2023)
# pIC50: −log10 of the molar value. The source made the active and inactive calls. No cut-off for these calls is given here.
# Assays:
# Shigella flexneri = assay: Antibacterial activity against Shigella flexneri ATCC 12022 assessed as bacterial growth inhibition incubated for 48 hrs by broth dilution susceptibility test; type: functional
# [1] = Cytotoxicity against HUVEC cells assessed as inhibition of cell growth incubated for 48 hrs by CCK-8 assay; type: toxicity, cell-based; conditions: human
# [2] = test system: Peptostreptococcus anaerobius; assay: Antibacterial activity against Peptostreptococcus anaerobius ATCC 27337 assessed as bacterial growth inhibition incubated for 48 hrs by broth dilution susceptibility test; type: functional
# [3] = Acute toxicity in ICR mouse assessed as death rate at 2592 mg/kg, po measured after 7 days; type: organism-based; conditions: in vivo, time 7 day, read-out: Activity
# [4] = Acute toxicity in ICR mouse assessed as death rate at 2160 mg/kg, po measured after 7 days; type: organism-based; conditions: in vivo, time 7 day, read-out: Activity
# MC-38 = assay: Antiproliferative activity against mouse MC-38 cells assessed as inhibition of cell growth incubated for 48 hrs by CCK-8 assay; type: functional, cell-based; conditions: MC-38, 48 h
# [5] = test system: Salmonella enterica subsp. enterica serovar Paratyphi B; assay: Antibacterial activity against Salmonella paratyphi B ATCC CMCC50094 assessed as bacterial growth inhibition incubated for 48 hrs by broth dilution susceptibility test; type: functional
# [6] = Acute toxicity in po dosed ICR mouse assessed as animal death measured after 7 days; type: organism-based; conditions: in vivo, time 7 day
# Fusobacterium nucleatum [7] = assay: Inhibition of Fusobacterium nucleatum ATCC 23726 stimulated mouse MC-38 cell migration assessed as reduction in number of migrating cells at 16 to 32 ug/ml incubated for 48 hrs by crystal violet staining based transwell assay; type: functional; conditions: dose 16-32 µg/ml
# [8] = test system: Lactobacillus acidophilus; assay: Antibacterial activity against Lactobacillus acidophilus ATCC CGMCC 1.577 assessed as bacterial growth inhibition incubated for 48 hrs by broth dilution susceptibility test; type: functional
# [9] = Acute toxicity in po dosed ICR mouse assessed as kidney damage by measuring atrophy of glomerulus at 1500 mg/kg, po measured after 7 days by H and E staining based analysis; type: organism-based; conditions: in vivo, 168 h, time 7 day
# [10] = Cytotoxicity against human L02 cells assessed as inhibition of cell growth incubated for 48 hrs by CCK-8 assay; type: toxicity, cell-based
# Fusobacterium nucleatum [11] = assay: Antibiofilm activity against Fusobacterium nucleatum ATCC 23726 assessed as inhibition of biofilm formation incubated for 48 hrs by crystal violet staining based assay; type: functional, organism-based; conditions: dose 0.5-16 µg/ml
# Escherichia coli = assay: Antibacterial activity against Escherichia coli […] assessed as bacterial growth inhibition incubated for 48 hrs by broth dilution susceptibility test; type: functional
# Akkermansia muciniphila = assay: Antibacterial activity against Akkermansia muciniphila ATCC BAA-835 assessed as bacterial growth inhibition incubated for 48 hrs by broth dilution susceptibility test; type: functional
# HCT-116 = assay: Antiproliferative activity against human HCT-116 cells assessed as inhibition of cell growth incubated for 48 hrs by CCK-8 assay; type: functional, cell-based; conditions: HCT-116, 48 h
# Fusobacterium nucleatum [12] = assay: Antibacterial activity against Fusobacterium nucleatum ATCC 23726 assessed as bacterial growth inhibition incubated for 48 hrs by broth dilution susceptibility test; type: functional
# [13] = Acute toxicity in po dosed ICR mouse assessed as lung damage by measuring thickening of alveolar walls at 1500 mg/kg, po measured after 7 days by H and E staining based analysis; type: organism-based; conditions: in vivo, 168 h, time 7 day
# Staphylococcus aureus = assay: Antibacterial activity against Staphylococcus aureus ATCC 6538 assessed as bacterial growth inhibition incubated for 48 hrs by broth dilution susceptibility test; type: functional
# Enterococcus faecalis = assay: Antibacterial activity against Enterococcus faecalis ATCC 29212 assessed as bacterial growth inhibition incubated for 48 hrs by broth dilution susceptibility test; type: functional
# Fusobacterium nucleatum [14] = assay: Antibiofilm activity against Fusobacterium nucleatum ATCC 23726 assessed as downregulation of tnaA gene expression measured after 48 hrs by RT-qPCR analysis; type: functional, organism-based
# Fusobacterium nucleatum [15] = assay: Antibacterial activity against Fusobacterium nucleatum ATCC 23726 assessed as downregulation of NTR gene expression incubated for 48 hrs by RT-qPCR analysis; type: functional, organism-based
# L02 = assay: Downregulation of HPPD gene expression in human L02 cells at 10 to 50 uM incubated for 48 hrs by RT-qPCR analysis; type: functional, cell-based; conditions: dose 10-50 µM
# Fusobacterium nucleatum [16] = assay: Antibacterial activity against Fusobacterium nucleatum ATCC 23726 assessed as bacterial growth inhibition at 8 ug/ml incubated for 72 hrs by turbidimeter analysis; type: functional, organism-based; conditions: dose 8.0 µg/ml
# Fusobacterium nucleatum [17] = assay: Antibacterial activity against Fusobacterium nucleatum ATCC 23726 assessed as bacterial growth inhibition incubated for 72 hrs by turbidimeter analysis; type: functional, organism-based
# [18] = Drug metabolism assessed as NTR(unknown origin)-mediated metabolism at 10 mM incubated for 2 hrs in presence of NADH by LC-MS analysis; type: ADME; conditions: bacteria, 10000 µM
# [19] = Acute toxicity in po dosed ICR mouse assessed as lung damage at 1500 mg/kg, po measured after 7 days by H and E staining based analysis; type: organism-based; conditions: in vivo, 168 h, time 7 day
# [20] = Acute toxicity in po dosed ICR mouse assessed as liver damage at 1500 mg/kg, po measured after 7 days by H and E staining based analysis; type: organism-based; conditions: in vivo, 168 h, time 7 day
# [21] = Metabolic stability in mouse liver microsomes assessed as half life at 1 uM incubated for 45 mins in presence of NADPH by LC-MS/MS analysis; type: ADME, Microsome
# Fusobacterium nucleatum [22] = assay: Antibacterial activity against Fusobacterium nucleatum ATCC 23726 assessed as bacterial growth inhibition at 4 ug/ml incubated for 72 hrs by turbidimeter analysis; type: functional, organism-based; conditions: dose 4.0 µg/ml
# [23] = Acute toxicity in po dosed ICR mouse assessed as kidney damage at 1500 mg/kg, po measured after 7 days by H and E staining based analysis; type: organism-based; conditions: in vivo, 168 h, time 7 day
# Fusobacterium nucleatum [24] = assay: Antibacterial activity against Fusobacterium nucleatum ATCC 23726 assessed as bacterial growth inhibition at 8 ug/ml incubated for 72 hrs by turbidimeter analysis relative to control; type: functional; set-up: scale not given: the % may be the effect or the level left; conditions: dose 8 µg/ml
# Fusobacterium nucleatum [25] = assay: Antibiofilm activity against Fusobacterium nucleatum ATCC 23726 assessed as inhibition of biofilm formation at 1 ug/ml incubated for 48 hrs by crystal violet staining based assay relative to control; type: functional
# [26] = Acute toxicity in po dosed ICR mouse assessed as heart damage at 1500 mg/kg, po measured after 7 days by H and E staining based analysis; type: organism-based; conditions: in vivo, 168 h, time 7 day
# [27] = Acute toxicity in ICR mouse assessed as death rate at 1250 to 2592 mg/kg, po measured after 7 days; type: organism-based; conditions: in vivo, dose 1250-2592 mg/kg, time 7 day, read-out: Activity
# [28] = Acute toxicity in po dosed ICR mouse assessed as spleen damage at 1500 mg/kg, po measured after 7 days by H and E staining based analysis; type: organism-based; conditions: in vivo, 168 h, time 7 day
smiles,measurement,setting,value
O=C1CCCC(=O)C1C(=O)c1ccc(C(F)(F)F)cc1[N+](=O)[O-] [NITISINONE],MIC50,Shigella flexneri,> 64 µg/mL
same,IC50 at 48 h,[1],338 µM
same,MIC50,[2],> 64 µg/mL
same,mortality at 168 h,[3],90%
same,mortality at 168 h,[4],100%
same,pIC50,MC-38,4.02
same,MIC50,[5],> 64 µg/mL
same,LD50 at 168 h,[6],1610 mg/kg
same,inhibition,Fusobacterium nucleatum [7],Active
same,MIC50,[8],64 µg/mL
same,Activity,[9],Toxic
same,IC50 at 48 h,[10],104 µM
same,inhibition,Fusobacterium nucleatum [11],Dose-Dependent Effect
same,MIC50,Escherichia coli,> 64 µg/mL
same,MIC50,Akkermansia muciniphila,> 64 µg/mL
same,pIC50,HCT-116,3.97
same,MIC50,Fusobacterium nucleatum [12],8 µg/mL
same,Activity,[13],Toxic
same,MIC50,Staphylococcus aureus,> 64 µg/mL
same,MIC50,Enterococcus faecalis,> 64 µg/mL
same,Activity,Fusobacterium nucleatum [14],Dose-Dependent Effect
same,Activity,Fusobacterium nucleatum [15],Dose-Dependent Effect
same,Activity,L02,Active
O=[N+]([O-])c1ccc(COc2ccc(C(F)(F)F)cc2[N+](=O)[O-])o1,MIC50,Fusobacterium nucleatum [12],4 µg/mL
CC1CS(=O)(=O)CCN1/N=C/c1ccc([N+](=O)[O-])o1 (stereo not drawn) [NIFURTIMOX],MIC50,Fusobacterium nucleatum [12],16 µg/mL
NC(=O)c1ccc(NC(=O)c2ccc(C(F)(F)F)cc2[N+](=O)[O-])cc1,MIC50,Fusobacterium nucleatum [12],> 64 µg/mL
O=C(Nc1ccc([N+](=O)[O-])c(Cl)c1)c1ccc([N+](=O)[O-])cc1F,MIC50,Fusobacterium nucleatum [12],> 64 µg/mL
O=C(NCc1ccncc1)c1ccc(C(F)(F)F)cc1[N+](=O)[O-],MIC50,Fusobacterium nucleatum [12],64 µg/mL
Cc1ccc(OC(=O)c2ccc(C(F)(F)F)cc2[N+](=O)[O-])c(C(N)=O)c1,MIC50,Fusobacterium nucleatum [12],64 µg/mL
O=C1OCCN1/N=C/c1ccc([N+](=O)[O-])o1 [FURAZOLIDONE],MIC50,Fusobacterium nucleatum [12],16 µg/mL
O=C(Nc1cc(Cl)cc([N+](=O)[O-])c1)c1ccc(C(F)(F)F)cc1[N+](=O)[O-],MIC50,Fusobacterium nucleatum [12],> 64 µg/mL
CN(N=O)C(=O)N[C@@H](C=O)[C@@H](O)[C@H](O)[C@H](O)CO [STREPTOZOCIN],MIC50,Fusobacterium nucleatum [12],0.125 µg/mL
CS(=O)(=O)c1ccc(C(=O)C2C(=O)CCCC2=O)c([N+](=O)[O-])c1 [MESOTRIONE],MIC50,Fusobacterium nucleatum [12],32 µg/mL
CS(=O)(=O)c1ccc(C(=O)C2C(=O)CCCC2=O)c(Cl)c1COCC(F)(F)F [TEMBOTRIONE],MIC50,Fusobacterium nucleatum [12],> 64 µg/mL
Cc1cc(NC(=O)c2ccc(C(F)(F)F)cc2[N+](=O)[O-])on1,MIC50,Fusobacterium nucleatum [12],> 64 µg/mL
O=C(OCc1ccc([N+](=O)[O-])o1)c1ccc([N+](=O)[O-])c(Br)c1,MIC50,Shigella flexneri,> 64 µg/mL
same,IC50 at 48 h,[1],31 µM
same,MIC50,[2],> 64 µg/mL
same,pIC50,MC-38,4.38
same,MIC50,[5],64 µg/mL
same,MIC50,[8],64 µg/mL
same,IC50 at 48 h,[10],175 µM
same,MIC50,Escherichia coli,> 64 µg/mL
same,MIC50,Akkermansia muciniphila,> 64 µg/mL
same,pIC50,HCT-116,4.18
same,MIC50,Fusobacterium nucleatum [12],4 µg/mL
same,Activity,Fusobacterium nucleatum [16],Active
same,MIC50,Staphylococcus aureus,> 64 µg/mL
same,MIC50,Enterococcus faecalis,> 64 µg/mL
same,Activity,Fusobacterium nucleatum [17],Dose-Dependent Effect
O=[N+]([O-])c1ccc(COc2ccc([N+](=O)[O-])c(Br)c2)o1,Drug metabolism,[18],Metabolite_Detected
same,Activity,[19],Non-Toxic
same,MIC50,Shigella flexneri,> 64 µg/mL
same,IC50 at 48 h,[1],16 µM
same,MIC50,[2],32 µg/mL
same,Activity,[20],Non-Toxic
same,pIC50,MC-38,4.59
same,MIC50,[5],> 64 µg/mL
same,LD50 at 168 h,[6],> 2590 mg/kg
same,half-life at 1 µM,[21],21.3 min
same,Activity,Fusobacterium nucleatum [22],Active
same,MIC50,[8],64 µg/mL
same,IC50 at 48 h,[10],60 µM
same,inhibition,Fusobacterium nucleatum [11],Dose-Dependent Effect
same,MIC50,Escherichia coli,16 µg/mL
same,MIC50,Akkermansia muciniphila,> 64 µg/mL
same,pIC50,HCT-116,4.21
same,MIC50,Fusobacterium nucleatum [12],2 µg/mL
same,MIC90,Fusobacterium nucleatum [12],2 µg/mL
same,Activity,[23],Non-Toxic
same,MIC50,Staphylococcus aureus,64 µg/mL
same,MIC50,Enterococcus faecalis,64 µg/mL
same,Activity,Fusobacterium nucleatum [24],~100%
same,Activity,Fusobacterium nucleatum [14],Dose-Dependent Effect
same,inhibition at 1 µg/mL,Fusobacterium nucleatum [25],> 50%
same,Activity,[26],Non-Toxic
same,mortality at 168 h,[27],0%
same,Activity,Fusobacterium nucleatum [17],Dose-Dependent Effect
same,Activity,Fusobacterium nucleatum [15],Dose-Dependent Effect
same,Activity,L02,Active
same,Activity,[28],Non-Toxic
O=C(Cn1cnc(=O)c2ccc(Cl)cc21)Nc1ccc([N+](=O)[O-])cc1Cl,MIC50,Fusobacterium nucleatum [12],64 µg/mL
Cc1ncc([N+](=O)[O-])n1C [DIMETRIDAZOLE],MIC50,Fusobacterium nucleatum [12],1 µg/mL
